Reference: patent US5298488A, “CM-chitin derivatives and use thereof” (Fuji Photo Film Co., Ltd., priority 1990, dated 1994)
No end group written: not given here. succinylated CM‑chitin = succinylated carboxymethyl-chitin (CM-chitin), conjugated to the peptide; sulfated succinylated CM‑chitin = sulfated succinylated CM-chitin; succinylated CM‑Chitin = succinylated CM-chitin; CM‑Chitin = carboxymethyl chitin

Columns and labels:
[1] = tested on: human plasma rich in platelet; experiment: Platelet coagulation-inhibitory activity in vitro, transmittance by aggregometer; type: cell-based; settings: 37° C., 3 minutes preincubation; for Platelet Coagulation-Inhibitory Action IC50, ADP Stimulation: ADP stimulation (50 μM ADP solution); for Platelet Coagulation-Inhibitory Action IC50, Collagen Stimulation: collagen stimulation (200 μg/ml collagen solution)
Protocol: The platelet coagulation-inhibitory effect of the CM-chitin derivative of the present invention was assayed, in vitro, using human plasma rich in platelet. The experimental method will be described below.
To fresh human blood, there was added 1/9 volume of a 3.8% sodium citrate solution, the resulting mixture was centrifuged (1000 rpm; for 10 minutes) and the upper layer was separated as a plasma rich in platelet. A lyophilized CM-chitin derivative was dissolved in physiological saline to give a plurality of solutions having various concentrations ranging from 0 to 1.5 mg/ml. Each of the solutions (25 μ1) was added to 200 µl of the plasma, incubated at 37° C. for 3 minutes, then a 50 μM of ADP (adenosine diphosphate) solution or a 200 μg/ml collagen solution was added to determine the extent of coagulation in terms of transmittance determined by an aggregometer.
Rate of Coagulation Inhibition=(1-T/T .)×100%
T . : transmittance observed when a salt of CM-chitin derivative was not added.
T : transmittance observed when a salt of CM-chitin derivative was added.

fibronectin = experiment: Cell adhesion-inhibitory test against fibronectin (competitive assay, number of adhered cells); type: cell-based, human; settings: endothelium cells of blood vessel, 37° C., one hour, 0 mg/ml control 160
From the text: (§1) A method for determining the activity of the CM-chitin derivatives of the present invention for inhibiting adhesion of cells to fibronectin or vitronectin will be described below. The competitive assays used herein have widely been employed tin the field of biochemistry and are detailed in, for instance, "Method in Enzymology", 1981, 82, pp. 803-831; and J. P. KOKAI Nos. Hei 1-309682 and Hei 2-174797.
(§2) Commercially available fibroneotin (derived from human; purchased from Seikaqaku Kogyo K. K.) and vitronectin (derived from human; purchased from Funakoshi Co., Ltd.) each was diluted to 1.0 μ1/ml and 2.0 μ1/ml with PBS (NaH2 PO4 0.005 M+NaCl 0.07 M), 0.5 ml of the resulting diluted solution was dispensed into a plastic plate having 24 wells and incubated at 37° C. overnight to perform coating of the plate. Then bovine serum albumin (BSA 1%) was added followed by incubation at 37° C. for one hour for inhibiting the occurrence of nonspecific adsorption, then washing with PBS in the usual manner and sufficient drainage to give an adsorption plate.
(§3) A CM-chitin derivative obtained through lyophilization was diluted with Dulbecco's Modified Eagles Medium (hereunder referred to as "DMEM") to give solutions of the CM-chitin derivative having concentrations of 0, 0.25, 0.5, 1.0 and 1.5 mg/ml respectively. Each of the solutions (0.25 ml) was dispensed to the plate prepared above, 0.25 ml of a suspension of endothelium cells of blood vessel (4×10^6 cells/ml) was added to the plate and incubated at 37° C. for one hour to thus cause cohesion of the cells. The plate was washed three times with DMEM medium to remove non-adhesive cells, then the adhered cells were peeled off with a 0.025% EDTA trypsin solution and stained with a 2% Trypan Blue solution to determine the number of the adhered cells.

vitronectin = experiment: Cell adhesion-inhibitory test against vitronectin (competitive assay, number of adhered cells); type: cell-based, human; settings: endothelium cells of blood vessel, 37° C., one hour, 0 control 249
From the text: as §1, §2
as §3, with “A CM-chitin derivative obtained through lyophilization was diluted with Dulbecco's Modified Eagles Medium (hereunder referred to as "DMEM") to give solutions of the CM-chitin derivative having concentrations of 0, 0.25, 0.5, 1.0 and 1.5 mg/ml respectively.” left out

[2] = concentration 10 mg/ml (so in the source)
[3] = concentration 50 mg/ml (so in the source)
[4] = concentration 100 mg/ml (so in the source)
[5] = concentration 300 mg/ml (so in the source)

| Compound | Platelet Coagulation-Inhibitory Action IC50, ADP Stimulation [1] | Platelet Coagulation-Inhibitory Action IC50, Collagen Stimulation [1] | Cell Adhesion-Inhibitory effect Against Fibronectin (number of adhered cells) (fibronectin; concentration 0.5 mg/ml) | Cell Adhesion-Inhibitory effect Against Fibronectin (number of adhered cells) (fibronectin; concentration 1.0 mg/ml) | Cell Adhesion-Inhibitory effect Against Fibronectin (number of adhered cells) (fibronectin; concentration 1.5 mg/ml) | Cell Adhesion-Inhibitory effect Against Fibronectin (number of adhered cells) (fibronectin; concentration .25 mg/ml) | Cell Adhesion-Inhibitory effect Against Vitronectin (number of adhered cells) (vitronectin; [2]) | Cell Adhesion-Inhibitory effect Against Vitronectin (number of adhered cells) (vitronectin; [3]) | Cell Adhesion-Inhibitory effect Against Vitronectin (number of adhered cells) (vitronectin; [4]) | Cell Adhesion-Inhibitory effect Against Vitronectin (number of adhered cells) (vitronectin; [5]) |
| --- | --- | --- | --- | --- | --- | --- | --- | --- | --- | --- |
| Succinylated CM-Chitin Gly-Arg-Gly-Asp-Ser (GRGDS; also: conjugated to succinylated CM-chitin) [CM--chitin derivative-8] | 24 µg/mL | 14 µg/mL | 113 cell/well | 80 cell/well | 59 cell/well | 130 cell/well | 130 cell/well | 95 cell/well | 69 cell/well | 47 cell/well |
| N=C(N)NCCC[C@H](N)C(=O)NCC(=O)N[C@@H](CC(=O)O)C(=O)O [ArgGlyAsp, H--(Arg--Gly--Asp)--OH, reference compound] | 27 µg/mL | 22 µg/mL | 162 cell/well | 141 cell/well | 83 cell/well | 157 cell/well | 171 cell/well | 132 cell/well | 104 cell/well | 73 cell/well |
| Maleyl Derivative of CM-Chitin Arg-Gly-Asp-Ser (RGDS; also: conjugated to maleyl CM-chitin) [CM--chitin derivative-3] | 21 µg/mL | 7 µg/mL | 100 cell/well | 77 cell/well | 55 cell/well | 123 cell/well | 141 cell/well | 87 cell/well | 69 cell/well | 49 cell/well |
| Succinylated CM-Chitin-Arg-Gly-Asp-Ser ({succinylated CM‑chitin}-RGDS) [CM--chitin derivative-2] | 18 µg/mL | 10 µg/mL | 99 cell/well | 82 cell/well | 75 cell/well | 135 cell/well | 137 cell/well | 96 cell/well | 78 cell/well | 59 cell/well |
| CM-Chitin-Arg-Gly-Asp-Ser ({CM‑Chitin}-RGDS) [CM--chitin derivative-1, rate of introduction of Arg-Gly-Asp-Ser fragments about 10%] | 15 µg/mL | 10 µg/mL | 106 cell/well | 79 cell/well | 69 cell/well | 131 cell/well | 148 cell/well | 89 cell/well | 72 cell/well | 41 cell/well |

Now from value to compound, other results behind:

| Platelet Coagulation-Inhibitory Action IC50, ADP Stimulation [1] | Platelet Coagulation-Inhibitory Action IC50, Collagen Stimulation [1] | Compound | Cell Adhesion-Inhibitory effect Against Fibronectin (number of adhered cells) (fibronectin; concentration 0.5 mg/ml) | Cell Adhesion-Inhibitory effect Against Fibronectin (number of adhered cells) (fibronectin; concentration 1.0 mg/ml) | Cell Adhesion-Inhibitory effect Against Fibronectin (number of adhered cells) (fibronectin; concentration 1.5 mg/ml) | Cell Adhesion-Inhibitory effect Against Fibronectin (number of adhered cells) (fibronectin; concentration .25 mg/ml) | Cell Adhesion-Inhibitory effect Against Vitronectin (number of adhered cells) (vitronectin; [2]) | Cell Adhesion-Inhibitory effect Against Vitronectin (number of adhered cells) (vitronectin; [3]) | Cell Adhesion-Inhibitory effect Against Vitronectin (number of adhered cells) (vitronectin; [4]) | Cell Adhesion-Inhibitory effect Against Vitronectin (number of adhered cells) (vitronectin; [5]) |
| --- | --- | --- | --- | --- | --- | --- | --- | --- | --- | --- |
| 12 µg/mL | 2 µg/mL | Sulfated Succinylated CM-Chitin-Gly-Arg-Gly-Asp-Ser ({sulfated succinylated CM‑chitin}-GRGDS) [CM--chitin derivative-16] | 81 cell/well | 75 cell/well | 50 cell/well | 103 cell/well | 122 cell/well | 81 cell/well | 63 cell/well | 40 cell/well |
| 28 µg/mL | 9 µg/mL | Succinylated CM-Chitin Arg-Gly-Asp [CM--chitin derivative-9] | 97 cell/well | 85 cell/well | 65 cell/well | 121 cell/well | 139 cell/well | 88 cell/well | 77 cell/well | 58 cell/well |
| 30 µg/mL | 8 µg/mL | Succinylated CM-Chitin-(Arg-Gly-Asp)5 ({succinylated CM‑Chitin}-RGDRGDRGDRGDRGD) [CM--chitin derivative-12] | 101 cell/well | 89 cell/well | 77 cell/well | 125 cell/well | 150 cell/well | 101 cell/well | 80 cell/well | 59 cell/well |
| 19 µg/mL | 5 µg/mL | CM-Chitin-Gly-Arg-Gly-Asp-Ser-Pro [CM--chitin derivative-19] | 106 cell/well | 79 cell/well | 56 cell/well | 127 cell/well | 130 cell/well | 92 cell/well | 63 cell/well | 39 cell/well |
